Laboratory results reported in the NIST ThermoML archive (doi:10.1021/je1000878).
Numbers after ± are expanded uncertainties.

Assay: cn = amount concentration of the nth substance listed, in mol/dm3
Settings: 101.3 kPa, Liquid, c1 = 2

SMILES	viscosity (298.15 K)	viscosity (303.15 K)	viscosity (308.15 K)	viscosity (313.15 K)	viscosity (318.15 K)	viscosity (323.15 K)	viscosity (328.15 K)
O=[N+]([O-])[O-].[Na+] [sodium nitrate] + O	1.036 ± 0.014 mPa·s	0.9367 ± 0.013 mPa·s	0.8519 ± 0.012 mPa·s	0.7777 ± 0.011 mPa·s	0.7167 ± 0.0099 mPa·s	0.6559 ± 0.0092 mPa·s	0.6043 ± 0.0086 mPa·s
[Cl-].[Na+] [sodium chloride] + O	1.085 ± 0.014 mPa·s	0.9761 ± 0.013 mPa·s	0.8816 ± 0.012 mPa·s	0.8069 ± 0.011 mPa·s	0.7426 ± 0.01 mPa·s	0.676 ± 0.0095 mPa·s	0.6257 ± 0.0088 mPa·s
